Reference: ChEMBL document CHEMBL3608269, “Triazole-Linked Glycolipids Enhance the Susceptibility of MRSA to β-Lactam Antibiotics” (ACS Med Chem Lett, 2015)
≈ marks a conversion by molar mass, not a printed value. Calls of active or inactive are those of the source. The calls are words filed in the database; no cut-off is given here.

Experiments:
Staphylococcus aureus [1] = experiment: Potentiation of oxacillin-mediated antibacterial activity against methicillin-resistant Staphylococcus aureus ATCC 43300 assessed as appearance of rougher bacterial surface at 32 ug/ml after 4 hrs by scanning electron microscopic analysis; type: functional, organism-based
Staphylococcus aureus [2] = experiment: Potentiation of cefoxitin-mediated antibacterial activity against methicillin-resistant Staphylococcus aureus ATCC 43300 assessed as decrease in cefoxitin MIC at 32 ug/ml by checkerboard method relative to control; type: functional
Staphylococcus aureus [3] = experiment: Potentiation of oxacillin-mediated antibacterial activity against methicillin-resistant Staphylococcus aureus R36 clinical isolate at 32 ug/ml after 20 to 24 hrs by CLSI method; type: functional
Staphylococcus aureus [4] = experiment: Potentiation of cefaclor-mediated antibacterial activity against methicillin-resistant Staphylococcus aureus ATCC 43300 assessed as decrease in cefaclor MIC at 32 ug/ml by checkerboard method relative to control; type: functional
Staphylococcus aureus [5] = experiment: Potentiation of cefmetazole-mediated antibacterial activity against methicillin-resistant Staphylococcus aureus ATCC 43300 assessed as decrease in cefmetazole MIC at 32 ug/ml by checkerboard method relative to control; type: functional
Staphylococcus aureus [6] = experiment: Potentiation of cephalothin-mediated antibacterial activity against methicillin-resistant Staphylococcus aureus ATCC 43300 assessed as decrease in cephalothin MIC at 32 ug/ml by checkerboard method relative to control; type: functional
Staphylococcus aureus [7] = experiment: Potentiation of oxacillin-mediated antibacterial activity against methicillin-resistant Staphylococcus aureus ATCC 43300 assessed as growth inhibition at 32 ug/ml measured within 6 hrs by time kill assay; type: functional, organism-based
Staphylococcus aureus [8] = experiment: Potentiation of oxacillin-mediated antibacterial activity against methicillin-resistant Staphylococcus aureus ATCC 43300 assessed as decrease in oxacillin MIC at 32 ug/ml after 20 to 24 hrs by CLSI method relative to control; type: functional
Staphylococcus aureus [9] = experiment: Potentiation of oxacillin-mediated antibacterial activity against methicillin-resistant Staphylococcus aureus R313 clinical isolate at 32 ug/ml after 20 to 24 hrs by CLSI method; type: functional
Staphylococcus aureus [10] = experiment: Potentiation of cephazolin-mediated antibacterial activity against methicillin-resistant Staphylococcus aureus ATCC 43300 assessed as decrease in cephazolin MIC at 32 ug/ml by checkerboard method relative to control; type: functional
Staphylococcus aureus [11] = experiment: Potentiation of oxacillin-mediated antibacterial activity against methicillin-resistant Staphylococcus aureus R15 clinical isolate at 32 ug/ml after 20 to 24 hrs by CLSI method; type: functional
Staphylococcus aureus [12] = experiment: Potentiation of oxacillin-mediated antibacterial activity against methicillin-resistant Staphylococcus aureus R49 clinical isolate at 16 ug/ml after 20 to 24 hrs by CLSI method; type: functional
Staphylococcus aureus [13] = experiment: Potentiation of oxacillin-mediated antibacterial activity against methicillin-resistant Staphylococcus aureus R304 clinical isolate assessed as decrease in oxacillin MIC at 32 ug/ml after 20 to 24 hrs by CLSI method relative to control; type: functional
Staphylococcus aureus [14] = experiment: Antibacterial activity against methicillin-resistant Staphylococcus aureus ATCC 43300 assessed as growth inhibition at 32 ug/ml measured up to 24 hrs by time kill assay; type: functional, organism-based
Staphylococcus aureus [15] = experiment: Potentiation of oxacillin-mediated antibacterial activity against methicillin-resistant Staphylococcus aureus R53 clinical isolate at 16 ug/ml after 20 to 24 hrs by CLSI method; type: functional
Staphylococcus aureus [16] = experiment: Potentiation of carbenicillin-mediated antibacterial activity against methicillin-resistant Staphylococcus aureus ATCC 43300 assessed as decrease in carbenicillin MIC at 32 ug/ml by checkerboard method relative to control; type: functional
Staphylococcus aureus [17] = experiment: Potentiation of oxacillin-mediated antibacterial activity against methicillin-resistant Staphylococcus aureus R16 clinical isolate assessed as decrease in oxacillin MIC at 32 ug/ml after 20 to 24 hrs by CLSI method relative to control; type: functional
Staphylococcus aureus [18] = experiment: Potentiation of cefotaxime mediated antibacterial activity against methicillin-resistant Staphylococcus aureus ATCC 43300 assessed as decrease in cefotaxime MIC at 32 ug/ml by checkerboard method relative to control; type: functional
Staphylococcus aureus [19] = experiment: Potentiation of oxacillin-mediated antibacterial activity against methicillin-resistant Staphylococcus aureus ATCC 43300 assessed as decrease in oxacillin MIC at 32 ug/ml by checkerboard method relative to control; type: functional
Staphylococcus aureus [20] = experiment: Potentiation of ceftriaxone mediated antibacterial activity against methicillin-resistant Staphylococcus aureus ATCC 43300 assessed as decrease in ceftriaxone MIC at 32 ug/ml by checkerboard method relative to control; type: functional
Staphylococcus aureus [21] = experiment: Potentiation of oxacillin-mediated antibacterial activity against methicillin-resistant Staphylococcus aureus R50 clinical isolate assessed as decrease in oxacillin MIC at 16 ug/ml after 20 to 24 hrs by CLSI method relative to control; type: functional
Staphylococcus aureus [22] = experiment: Potentiation of oxacillin-mediated antibacterial activity against methicillin-resistant Staphylococcus aureus R36 clinical isolate assessed as decrease in oxacillin MIC at 32 ug/ml after 20 to 24 hrs by CLSI method relative to control; type: functional
Staphylococcus aureus [23] = experiment: Potentiation of penicillin-mediated antibacterial activity against methicillin-resistant Staphylococcus aureus ATCC 43300 assessed as decrease in penicillin MIC at 32 ug/ml by checkerboard method relative to control; type: functional
Staphylococcus aureus [24] = experiment: Potentiation of cefuroxime mediated antibacterial activity against methicillin-resistant Staphylococcus aureus ATCC 43300 assessed as decrease in cefuroxime MIC at 32 ug/ml by checkerboard method relative to control; type: functional
HEK293 = experiment: Cytotoxicity against HEK293 cells assessed as cell viability at 8 to 128 ug/ml by MTS assay; type: cell-based; conditions: human
Staphylococcus aureus [25] = experiment: Potentiation of oxacillin-mediated antibacterial activity against methicillin-resistant Staphylococcus aureus ATCC 43300 at 32 ug/ml after 20 to 24 hrs by CLSI method; type: functional
Staphylococcus aureus [26] = experiment: Potentiation of oxacillin-mediated antibacterial activity against methicillin-resistant Staphylococcus aureus R306 clinical isolate at 32 ug/ml after 20 to 24 hrs by CLSI method; type: functional
Staphylococcus aureus [27] = experiment: Potentiation of oxacillin-mediated antibacterial activity against methicillin-resistant Staphylococcus aureus ATCC 43300 assessed as growth inhibition at 32 ug/ml after 24 hrs by epsilometer test; type: functional, organism-based
Staphylococcus aureus [28] = experiment: Potentiation of cephamandole-mediated antibacterial activity against methicillin-resistant Staphylococcus aureus ATCC 43300 assessed as decrease in cephamandole MIC at 32 ug/ml by checkerboard method relative to control; type: functional
Staphylococcus aureus [29] = experiment: Antibacterial activity against methicillin-resistant Staphylococcus aureus ATCC 43300 after 20 to 24 hrs by CLSI method; type: functional
Staphylococcus aureus [30] = experiment: Potentiation of cefoperazone mediated antibacterial activity against methicillin-resistant Staphylococcus aureus ATCC 43300 assessed as decrease in cefoperazone MIC at 32 ug/ml by checkerboard method relative to control; type: functional
Staphylococcus aureus [31] = experiment: Potentiation of oxacillin-mediated antibacterial activity against methicillin-resistant Staphylococcus aureus R302 clinical isolate at 32 ug/ml after 20 to 24 hrs by CLSI method; type: functional
Staphylococcus aureus [32] = experiment: Potentiation of oxacillin-mediated antibacterial activity against methicillin-resistant Staphylococcus aureus R302 clinical isolate assessed as decrease in oxacillin MIC at 32 ug/ml after 20 to 24 hrs by CLSI method relative to control; type: functional

SMILES: CCCCCCCCCCCCOCc1cn([C@@H]2O[C@H](CO)[C@@H](O)[C@H](O)[C@H]2O)nn1
- Activity (Staphylococcus aureus [1]): Active
- fold change (FC) (Staphylococcus aureus [2]): <=256
- MIC (Staphylococcus aureus [3]): 8 mg/L
- fold change (FC) (Staphylococcus aureus [4]): <=256
- fold change (FC) (Staphylococcus aureus [5]): <=256
- fold change (FC) (Staphylococcus aureus [6]): <=256
- growth inhibition (GI) (Staphylococcus aureus [7]): Active
- fold change (FC) (Staphylococcus aureus [8]): 128
- MIC (Staphylococcus aureus [9]): 8 mg/L
- fold change (FC) (Staphylococcus aureus [10]): <=256
- MIC (Staphylococcus aureus [11]): 64 mg/L
- MIC (Staphylococcus aureus [12]): < 1 mg/L
- MIC (Staphylococcus aureus [13]): 2 mg/L
- growth inhibition (GI) (Staphylococcus aureus [14]): inactive
- MIC (Staphylococcus aureus [15]): < 1 mg/L
- fold change (FC) (Staphylococcus aureus [16]): <=256
- MIC (Staphylococcus aureus [17]): 4 mg/L
- fold change (FC) (Staphylococcus aureus [18]): <=256
- fold change (FC) (Staphylococcus aureus [19]): <=256
- fold change (FC) (Staphylococcus aureus [20]): <=256
- MIC (Staphylococcus aureus [21]): 8 mg/L
- MIC (Staphylococcus aureus [22]): 8 mg/L
- fold change (FC) (Staphylococcus aureus [23]): <=256
- fold change (FC) (Staphylococcus aureus [24]): <=256
- Activity (HEK293): Non-toxic
- MIC (Staphylococcus aureus [25]): 1 mg/L
- MIC (Staphylococcus aureus [26]): 32 mg/L
- growth inhibition (GI) (Staphylococcus aureus [27]): Active
- fold change (FC) (Staphylococcus aureus [28]): <=256
- MIC (Staphylococcus aureus [29]): 256 mg/L (≈ 596 µM)
- fold change (FC) (Staphylococcus aureus [30]): <=256
- MIC (Staphylococcus aureus [31]): 128 mg/L
- MIC (Staphylococcus aureus [32]): 4 mg/L
